Assay results taken from patent EP0500835B1, “A NOVEL QUINOLONE CARBOXYLIC ACID DERIVATIVE” (DAEWOONG PHARMACEUTICAL CO., LTD., priority 1990, dated 1992).
≈ marks a conversion by molar mass, not a printed value.

What was measured:
[1] = test system: Staphylococcus aureus 695E; assay: Antibacterial activity for MRSA; format: cell-based; settings: Staphylococcus aureus 695E (MRSA)
Method: (§1) The compound of example 2 was orally administered to determine the LD50 for a group of male mice. […] The antibacterial activity for MRSA(Methicillin Resistant Staphyloccocus Aureus) was tested by the compound of example 2.

[2] = test system: Staphylococcus aureus 256E; assay: Antibacterial activity for MRSA; format: cell-based; settings: Staphylococcus aureus 256E (MRSA)
Method: as §1

[3] = test system: Staphylococcus aureus 208E; assay: Antibacterial activity for MRSA; format: cell-based; settings: Staphylococcus aureus 208E (MRSA)
Method: as §1

[4] = test system: Staphylococcus aureus 707E; assay: Antibacterial activity for MRSA; format: cell-based; settings: Staphylococcus aureus 707E (MRSA)
Method: as §1

[5] = test system: Staphylococcus aureus 703E; assay: Antibacterial activity for MRSA; format: cell-based; settings: Staphylococcus aureus 703E (MRSA)
Method: as §1

[6] = test system: Staphylococcus aureus 88 E; assay: Antibacterial activity for MRSA; format: cell-based; settings: Staphylococcus aureus 88 E (MRSA)
Method: as §1

[7] = test system: Staphylococcus aureus 121E; assay: Antibacterial activity for MRSA; format: cell-based; settings: Staphylococcus aureus 121E (MRSA)
Method: as §1

[8] = test system: Staphylococcus aureus 714E; assay: Antibacterial activity for MRSA; format: cell-based; settings: Staphylococcus aureus 714E (MRSA)
Method: as §1

[9] = test system: Staphylococcus aureus 705E; assay: Antibacterial activity for MRSA; format: cell-based; settings: Staphylococcus aureus 705E (MRSA)
Method: as §1

[10] = test system: Staphylococcus aureus 697E; assay: Antibacterial activity for MRSA; format: cell-based; settings: Staphylococcus aureus 697E (MRSA)
Method: as §1

[11] = test system: Saphylococcus aureus 692E; assay: Antibacterial activity for MRSA; format: cell-based; settings: Saphylococcus aureus 692E (MRSA)
Method: as §1

[12] = test system: Staphylococcus aureus 711E; assay: Antibacterial activity for MRSA; format: cell-based; settings: Staphylococcus aureus 711E (MRSA)
Method: as §1

[13] = test system: Staphylococcus aureus 693E; assay: Antibacterial activity for MRSA; format: cell-based; settings: Staphylococcus aureus 693E (MRSA)
Method: as §1

[14] = test system: Staphylococcus aureus 708E; assay: Antibacterial activity for MRSA; format: cell-based; settings: Staphylococcus aureus 708E (MRSA)
Method: as §1

[15] = test system: Staphylococcus aureus 706E; assay: Antibacterial activity for MRSA; format: cell-based; settings: Staphylococcus aureus 706E (MRSA)
Method: as §1

[16] = test system: Staphylococcus aureus 701E; assay: Antibacterial activity for MRSA; format: cell-based; settings: Staphylococcus aureus 701E (MRSA)
Method: as §1

[17] = test system: Staphylococcus aureus 690E; assay: Antibacterial activity for MRSA; format: cell-based; settings: Staphylococcus aureus 690E (MRSA)
Method: as §1

[18] = test system: Staphylococcus aureus 694E; assay: Antibacterial activity for MRSA; format: cell-based; settings: Staphylococcus aureus 694E (MRSA)
Method: as §1

[19] = test system: Staphylococcus aureus 752E; assay: Antibacterial activity for MRSA; format: cell-based; settings: Staphylococcus aureus 752E (MRSA)
Method: as §1

Oral LD50 in male mice = settings: mouse, in vivo, orally administered
Method: as §1

E. cloacae 1321E = assay: In vitro antibacterial activity, MIC by agar dilution method; format: cell-based; settings: Enterobacter cloacae; E. cloacae 1321E; agar dilution method; read-out: In vitro Antibacterial Activity, MIC
Method: (§2) The typical examples of the present compounds were tested for antimicrobial activity in vitro against twenty strains of Gram-positive and Gram-negative microorganisms.
(§3) The minimum inhibitory concentrations were determined according to the agar dilution method recommended by Japan Society of Chemotherapy[Chemotherapy., 29, 76 (1981)].

S. typhimurium = assay: as above; format: cell-based; settings: Salmonella enterica; S. typhimurium; agar dilution method; read-out: In vitro Antibacterial Activity, MIC
Method: as §2, §3

E. coli O 55 = assay: as above; format: cell-based; settings: Escherichia coli, O55; E. coli O 55; agar dilution method; read-out: In vitro Antibacterial Activity, MIC
Method: as §2, §3

E. cloacae P99 = assay: as above; format: cell-based; settings: Enterobacter cloacae; E. cloacae P99; agar dilution method; read-out: In vitro Antibacterial Activity, MIC
Method: as §2, §3

K. aerogenes 1522E = assay: as above; format: cell-based; settings: Klebsiella aerogenes; K. aerogenes 1522E; agar dilution method; read-out: In vitro Antibacterial Activity, MIC
Method: as §2, §3

S. aureus 503 = assay: as above; format: cell-based; settings: Staphylococcus aureus; S. aureus 503; agar dilution method; read-out: In vitro Antibacterial Activity, MIC
Method: as §2
(§4) The numerals in the table 1 show minimum inhibitory concentrations(MIC in µg/ml). The minimum inhibitory concentrations were determined according to the agar dilution method recommended by Japan Society of Chemotherapy[Chemotherapy., 29, 76 (1981)].

S. aureus SG 511 = assay: as above; format: cell-based; settings: Staphylococcus aureus, SG511; S. aureus SG 511; agar dilution method; read-out: In vitro Antibacterial Activity, MIC
Method: as §2, §4

E. coli TEM = assay: as above; format: cell-based; settings: Escherichia coli; E. coli TEM; agar dilution method; read-out: In vitro Antibacterial Activity, MIC
Method: as §2, §4

S. aureus 285 = assay: as above; format: cell-based; settings: Staphylococcus aureus; S. aureus 285; agar dilution method; read-out: In vitro Antibacterial Activity, MIC
Method: as §2, §4

E. coli DC 2 = assay: as above; format: cell-based; settings: Escherichia coli, DC2, read-out: In vitro Antibacterial Activity, MIC
Method: as §2, §4

E. coli DC 0 = assay: as above; format: cell-based; settings: Escherichia coli, DC0, read-out: In vitro Antibacterial Activity, MIC
Method: as §2, §4

P. aeruginosa 1771M = assay: as above; format: cell-based; settings: Pseudomonas aeruginosa; P. aeruginosa 1771M; agar dilution method; read-out: In vitro Antibacterial Activity, MIC
Method: as §2, §4

K. oxytoca 1082E = assay: as above; format: cell-based; settings: Klebsiella oxytoca; K. oxytoca 1082E; agar dilution method; read-out: In vitro Antibacterial Activity, MIC
Method: as §2, §4

S. faecium MD 86 = assay: as above; format: cell-based; settings: Enterococcus faecium, MD86; S. faecium MD 86; agar dilution method; read-out: In vitro Antibacterial Activity, MIC
Method: as §2, §4

E. coli 1507E = assay: as above; format: cell-based; settings: Escherichia coli; E. coli 1507E; agar dilution method; read-out: In vitro Antibacterial Activity, MIC
Method: as §2, §4

P. aeruginosa 1592E = assay: as above; format: cell-based; settings: Pseudomonas aeruginosa; P. aeruginosa 1592E; agar dilution method; read-out: In vitro Antibacterial Activity, MIC
Method: as §2, §4

P. aeruginosa 1771 = assay: as above; format: cell-based; settings: Pseudomonas aeruginosa; P. aeruginosa 1771; agar dilution method; read-out: In vitro Antibacterial Activity, MIC
Method: as §2, §4

S. pyogenes A 308 = assay: as above; format: cell-based; settings: Streptococcus pyogenes, A308; S. pyogenes A 308; agar dilution method; read-out: In vitro Antibacterial Activity, MIC
Method: as §2, §4

P. aeruginosa 9027 = assay: as above; format: cell-based; settings: Pseudomonas aeruginosa; P. aeruginosa 9027; agar dilution method; read-out: In vitro Antibacterial Activity, MIC
Method: as §2, §4

S. pyogenes A 77 = assay: as above; format: cell-based; settings: Streptococcus pyogenes, A77; S. pyogenes A 77; agar dilution method; read-out: In vitro Antibacterial Activity, MIC
Method: as §2, §4

## CSCC1CCN(c2c(F)cc3c(=O)c(C(=O)O)cn(C4CC4)c3c2F)C1 (stereo not shown) [Example 2, 1-cyclopropyl-6,8-difluoro-7-(3-methylthiomethylpyrrolidinyl)-1,4-dihydro-4-oxo-3-quinolinecarboxylic acid]
[1]
  Antibacterial Activity for MRSA: 0.013 µg/mL
[2]
  Antibacterial Activity for MRSA: 0.013 µg/mL
[3]
  Antibacterial Activity for MRSA: 0.025 µg/mL
[4]
  Antibacterial Activity for MRSA: 0.007 µg/mL
[5]
  Antibacterial Activity for MRSA: 0.007 µg/mL
[6]
  Antibacterial Activity for MRSA: 0.004 µg/mL
[7]
  Antibacterial Activity for MRSA: 0.013 µg/mL
[8]
  Antibacterial Activity for MRSA: 0.007 µg/mL
[9]
  Antibacterial Activity for MRSA: 0.013 µg/mL
[10]
  Antibacterial Activity for MRSA: 0.013 µg/mL
[11]
  Antibacterial Activity for MRSA: 0.004 µg/mL
[12]
  Antibacterial Activity for MRSA: 0.013 µg/mL
[13]
  Antibacterial Activity for MRSA: 0.007 µg/mL
[14]
  Antibacterial Activity for MRSA: 0.007 µg/mL
[15]
  Antibacterial Activity for MRSA: 0.013 µg/mL
[16]
  Antibacterial Activity for MRSA: 0.013 µg/mL
[17]
  Antibacterial Activity for MRSA: 0.004 µg/mL
[18]
  Antibacterial Activity for MRSA: 0.013 µg/mL
[19]
  Antibacterial Activity for MRSA: 0.013 µg/mL
Oral LD50 in male mice
  LD50: > 3000 mg/kg
E. cloacae 1321E
  MIC: 0.025 µg/mL (≈ 0.0634 µM)
S. typhimurium
  MIC: 0.049 µg/mL (≈ 0.124 µM)
E. coli O 55
  MIC: 0.013 µg/mL (≈ 0.033 µM)
E. cloacae P99
  MIC: 0.098 µg/mL (≈ 0.248 µM)
K. aerogenes 1522E
  MIC: 0.098 µg/mL (≈ 0.248 µM)
S. aureus 503
  MIC: 0.002 µg/mL (≈ 0.00507 µM)
S. aureus SG 511
  MIC: 0.002 µg/mL (≈ 0.00507 µM)
E. coli TEM
  MIC: 0.391 µg/mL (≈ 0.991 µM)
S. aureus 285
  MIC: 0.002 µg/mL (≈ 0.00507 µM)
E. coli DC 2
  MIC: 0.781 µg/mL (≈ 1.98 µM)
E. coli DC 0
  MIC: 0.781 µg/mL (≈ 1.98 µM)
P. aeruginosa 1771M
  MIC: 0.098 µg/mL (≈ 0.248 µM)
K. oxytoca 1082E
  MIC: 0.007 µg/mL (≈ 0.0177 µM)
S. faecium MD 86
  MIC: 0.195 µg/mL (≈ 0.494 µM)
E. coli 1507E
  MIC: 0.391 µg/mL (≈ 0.991 µM)
P. aeruginosa 1592E
  MIC: 0.781 µg/mL (≈ 1.98 µM)
P. aeruginosa 1771
  MIC: 0.391 µg/mL (≈ 0.991 µM)
S. pyogenes A 308
  MIC: 0.195 µg/mL (≈ 0.494 µM)
P. aeruginosa 9027
  MIC: 0.781 µg/mL (≈ 1.98 µM)
S. pyogenes A 77
  MIC: 0.098 µg/mL (≈ 0.248 µM)
